Patent US20260297085A1, “1 H-PYRROLO[2,3-B]PYRIDIN-4-YL]-2-OXOPYRROLIDINE-3-CARBONITRILE DERIVATIVES AS TYROSINE KINASE 2 (TYK2) INHIBITORS FOR THE TREATMENT OF INFLAMMATORY DISEASES” (BIOGEN MA INC., priority 2023, published 2026)
Counter-ions that a name gives are not always drawn.

Columns and labels:
[1] = biological target: T1, human JAK1 kinase domain (JH1) (Homo sapiens, UniProt P23458); assay: JH1 biochemical assay for JAK1 (ADP-Glo kinase assay, recombinant JH1 catalytic domain, JAK3-342 peptide, 35 μM ATP)
T1 construct: recombinantly generated catalytic kinase (also known as JH1) domain of human JAK1, JAK2, JAK3 and TYK2
Outline: (§1)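 Reactions ran 100 min with 50 μM substrate peptide (JAK3-342 for JAK1 at 4 nM enzyme; JAK3-974 for JAK2 0.2 nM, JAK3 0.3 nM, TYK2 2 nM), and ADP formed was read by ADP-Glo luminescence. Eleven-point 3-fold series from 10 or 1 μM; IC50 fitted by 4-parameter logistic model.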

[2] = biological target: JAK2 kinase activity on STAT5 in TF1 cells (Homo sapiens, UniProt O60674); assay: pSTAT5 cell assay (MSD; TF1 cells, 30 ng/mL IL-3 stimulation); format: cell-based; settings: 30 ng/mL IL-3, 15 minutes
Outline: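 Serum-starved TF1 cells with native JAK2/STAT5 were pretreated 1 h with compound (10-point four-fold dilutions from 10 μM), then stimulated 15 min with 30 ng/mL IL-3. pSTAT5 in lysates quantified by MSD immunoassay; normalized percent activity fitted to a 4-parameter logistic curve for IC50.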

[3] = biological target: T2, human TYK2 kinase domain (JH1) (Homo sapiens, UniProt P29597); assay: JH1 biochemical assay for TYK2 (ADP-Glo kinase assay, recombinant JH1 catalytic domain, JAK3-974 peptide, 10 μM ATP)
T2 construct: recombinantly generated catalytic kinase (also known as JH1) domain of human JAK1, JAK2, JAK3 and TYK2
T2 sequence (P29597 897-1176 limits assumed): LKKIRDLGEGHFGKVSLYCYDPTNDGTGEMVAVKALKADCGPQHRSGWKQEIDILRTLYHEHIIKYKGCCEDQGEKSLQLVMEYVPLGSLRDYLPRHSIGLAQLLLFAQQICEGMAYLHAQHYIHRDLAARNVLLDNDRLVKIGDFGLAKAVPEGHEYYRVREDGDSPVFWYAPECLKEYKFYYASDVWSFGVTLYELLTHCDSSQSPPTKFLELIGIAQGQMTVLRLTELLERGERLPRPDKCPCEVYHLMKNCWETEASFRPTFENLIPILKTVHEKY
Outline: as §1

[4] = biological target: T3, human JAK3 kinase domain (JH1) (Homo sapiens, UniProt P52333); assay: JH1 biochemical assay for JAK3 (ADP-Glo kinase assay, recombinant JH1 catalytic domain, JAK3-974 peptide, 4 μM ATP)
T3 construct: recombinantly generated catalytic kinase (also known as JH1) domain of human JAK1, JAK2, JAK3 and TYK2
Outline: as §1

[5] = biological target: T4, human JAK2 kinase domain (JH1) (Homo sapiens, UniProt O60674); assay: JH1 biochemical assay for JAK2 (ADP-Glo kinase assay, recombinant JH1 catalytic domain, JAK3-974 peptide, 15 μM ATP)
T4 construct: recombinantly generated catalytic kinase (also known as JH1) domain of human JAK1, JAK2, JAK3 and TYK2
Outline: as §1

[6] = biological target: Tyk2 kinase activity on STAT4 in NK92 cells (Homo sapiens, UniProt P29597); assay: pSTAT4 cell assay (MSD; NK92 cells, 30 ng/mL IL2 stimulation); format: cell-based; settings: 30 ng/mL IL2, 15 minutes
Outline: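 IC50 values derive from 4-parameter logistic fits of normalized percent activity against log compound concentration. Phospho-STAT was measured by MSD with anti-STAT4 antibodies after 15 min of 30 ng/mL IL2 in serum-starved NK92 cells pretreated 1 hr with compound.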

[7] = biological target: JAK1 kinase activity on STAT3 in TF1 cells (Homo sapiens, UniProt P23458); assay: pSTAT3 cell assay (MSD; TF1 cells, 30 ng/mL IL-6 stimulation); format: cell-based; settings: 30 ng/mL IL-6, 15 minutes
Outline: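 Serum-starved TF1 cells were pretreated with compound for 1 hour (10-point, four-fold dilutions from 10 μM), then stimulated with IL-6 for 15 minutes. Lysates were assayed for pSTAT3 by MSD with anti-STAT3 antibodies; IC50 came from a 4-parameter logistic fit of normalized percent activity.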

T4 sequence (O60674 849-1124 limits assumed): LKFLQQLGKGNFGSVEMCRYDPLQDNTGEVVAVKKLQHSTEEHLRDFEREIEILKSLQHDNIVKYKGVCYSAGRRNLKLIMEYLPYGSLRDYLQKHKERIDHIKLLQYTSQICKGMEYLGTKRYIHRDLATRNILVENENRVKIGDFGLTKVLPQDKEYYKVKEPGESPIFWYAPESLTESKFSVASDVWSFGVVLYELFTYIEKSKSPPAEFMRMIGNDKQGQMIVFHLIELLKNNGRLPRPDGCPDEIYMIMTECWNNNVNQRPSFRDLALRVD
T1 sequence (P23458 875-1153 limits assumed): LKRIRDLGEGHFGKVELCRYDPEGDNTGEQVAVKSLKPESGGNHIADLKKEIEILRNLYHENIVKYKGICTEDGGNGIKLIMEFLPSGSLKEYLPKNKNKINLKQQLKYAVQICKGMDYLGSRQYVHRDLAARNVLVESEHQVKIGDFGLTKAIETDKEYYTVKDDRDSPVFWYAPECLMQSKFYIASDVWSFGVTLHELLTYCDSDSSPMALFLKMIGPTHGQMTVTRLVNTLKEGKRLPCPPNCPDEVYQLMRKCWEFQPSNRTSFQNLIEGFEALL
JAK2 kinase activity on STAT5 in TF1 cells, sequence (O60674 whole entry): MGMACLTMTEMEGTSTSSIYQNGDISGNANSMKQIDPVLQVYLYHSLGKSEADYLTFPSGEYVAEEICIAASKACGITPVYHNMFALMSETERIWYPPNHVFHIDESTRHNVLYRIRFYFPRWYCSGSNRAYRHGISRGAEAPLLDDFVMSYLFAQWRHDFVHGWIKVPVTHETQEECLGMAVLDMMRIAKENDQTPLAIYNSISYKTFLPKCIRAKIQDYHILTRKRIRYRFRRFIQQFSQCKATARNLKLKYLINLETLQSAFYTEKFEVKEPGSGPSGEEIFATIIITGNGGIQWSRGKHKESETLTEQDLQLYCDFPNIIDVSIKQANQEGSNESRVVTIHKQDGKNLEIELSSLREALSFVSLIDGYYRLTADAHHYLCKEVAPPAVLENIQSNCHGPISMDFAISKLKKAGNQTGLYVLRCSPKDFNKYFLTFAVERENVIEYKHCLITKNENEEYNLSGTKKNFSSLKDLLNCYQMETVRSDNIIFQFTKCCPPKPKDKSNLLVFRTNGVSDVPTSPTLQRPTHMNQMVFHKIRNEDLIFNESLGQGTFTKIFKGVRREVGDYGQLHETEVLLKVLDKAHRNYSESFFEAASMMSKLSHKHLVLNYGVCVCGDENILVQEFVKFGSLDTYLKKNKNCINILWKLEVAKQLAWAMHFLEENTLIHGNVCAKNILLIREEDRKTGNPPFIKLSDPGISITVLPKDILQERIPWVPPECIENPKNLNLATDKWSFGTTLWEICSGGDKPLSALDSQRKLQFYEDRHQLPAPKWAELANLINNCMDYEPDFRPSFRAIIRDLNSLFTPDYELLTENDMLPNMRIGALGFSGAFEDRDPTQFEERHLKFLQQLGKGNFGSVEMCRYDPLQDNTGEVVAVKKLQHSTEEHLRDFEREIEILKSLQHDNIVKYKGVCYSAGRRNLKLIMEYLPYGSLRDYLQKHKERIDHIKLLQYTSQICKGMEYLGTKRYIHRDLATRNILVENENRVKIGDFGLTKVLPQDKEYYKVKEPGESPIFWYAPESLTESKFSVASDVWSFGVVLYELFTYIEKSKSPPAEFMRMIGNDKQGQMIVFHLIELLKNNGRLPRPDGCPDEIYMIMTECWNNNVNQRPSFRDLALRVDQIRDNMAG
Tyk2 kinase activity on STAT4 in NK92 cells, sequence (P29597 whole entry): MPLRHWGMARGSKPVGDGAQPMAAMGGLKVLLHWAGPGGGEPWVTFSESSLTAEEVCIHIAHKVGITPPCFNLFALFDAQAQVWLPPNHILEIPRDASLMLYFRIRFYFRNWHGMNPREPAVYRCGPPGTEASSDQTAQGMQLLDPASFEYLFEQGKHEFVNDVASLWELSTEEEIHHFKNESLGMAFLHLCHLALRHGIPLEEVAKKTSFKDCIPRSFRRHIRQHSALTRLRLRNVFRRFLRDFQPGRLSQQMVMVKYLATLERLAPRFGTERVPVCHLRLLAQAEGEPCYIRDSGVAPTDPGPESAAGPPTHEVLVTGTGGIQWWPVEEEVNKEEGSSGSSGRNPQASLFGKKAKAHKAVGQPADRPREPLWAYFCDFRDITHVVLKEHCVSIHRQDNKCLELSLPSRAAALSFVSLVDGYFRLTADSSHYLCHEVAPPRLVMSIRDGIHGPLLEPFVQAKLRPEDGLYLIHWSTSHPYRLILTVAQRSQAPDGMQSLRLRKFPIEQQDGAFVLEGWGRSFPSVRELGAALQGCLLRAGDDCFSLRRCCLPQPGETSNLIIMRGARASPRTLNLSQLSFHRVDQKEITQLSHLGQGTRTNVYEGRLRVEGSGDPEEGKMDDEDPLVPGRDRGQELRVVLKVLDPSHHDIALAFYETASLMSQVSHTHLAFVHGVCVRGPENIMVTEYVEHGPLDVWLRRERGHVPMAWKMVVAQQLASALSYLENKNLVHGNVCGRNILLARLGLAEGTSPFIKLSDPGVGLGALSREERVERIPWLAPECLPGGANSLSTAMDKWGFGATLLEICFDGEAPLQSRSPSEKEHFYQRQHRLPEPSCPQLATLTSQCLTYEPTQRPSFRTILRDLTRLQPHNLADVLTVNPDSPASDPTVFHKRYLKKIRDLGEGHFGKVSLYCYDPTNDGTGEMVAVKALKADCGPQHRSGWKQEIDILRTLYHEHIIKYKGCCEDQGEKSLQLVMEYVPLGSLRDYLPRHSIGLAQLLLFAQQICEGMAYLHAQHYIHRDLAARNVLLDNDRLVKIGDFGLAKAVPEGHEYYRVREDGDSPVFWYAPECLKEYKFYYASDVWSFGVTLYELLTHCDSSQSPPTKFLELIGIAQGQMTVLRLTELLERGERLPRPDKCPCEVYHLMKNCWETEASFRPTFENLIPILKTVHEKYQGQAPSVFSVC
JAK1 kinase activity on STAT3 in TF1 cells, sequence (P23458 whole entry): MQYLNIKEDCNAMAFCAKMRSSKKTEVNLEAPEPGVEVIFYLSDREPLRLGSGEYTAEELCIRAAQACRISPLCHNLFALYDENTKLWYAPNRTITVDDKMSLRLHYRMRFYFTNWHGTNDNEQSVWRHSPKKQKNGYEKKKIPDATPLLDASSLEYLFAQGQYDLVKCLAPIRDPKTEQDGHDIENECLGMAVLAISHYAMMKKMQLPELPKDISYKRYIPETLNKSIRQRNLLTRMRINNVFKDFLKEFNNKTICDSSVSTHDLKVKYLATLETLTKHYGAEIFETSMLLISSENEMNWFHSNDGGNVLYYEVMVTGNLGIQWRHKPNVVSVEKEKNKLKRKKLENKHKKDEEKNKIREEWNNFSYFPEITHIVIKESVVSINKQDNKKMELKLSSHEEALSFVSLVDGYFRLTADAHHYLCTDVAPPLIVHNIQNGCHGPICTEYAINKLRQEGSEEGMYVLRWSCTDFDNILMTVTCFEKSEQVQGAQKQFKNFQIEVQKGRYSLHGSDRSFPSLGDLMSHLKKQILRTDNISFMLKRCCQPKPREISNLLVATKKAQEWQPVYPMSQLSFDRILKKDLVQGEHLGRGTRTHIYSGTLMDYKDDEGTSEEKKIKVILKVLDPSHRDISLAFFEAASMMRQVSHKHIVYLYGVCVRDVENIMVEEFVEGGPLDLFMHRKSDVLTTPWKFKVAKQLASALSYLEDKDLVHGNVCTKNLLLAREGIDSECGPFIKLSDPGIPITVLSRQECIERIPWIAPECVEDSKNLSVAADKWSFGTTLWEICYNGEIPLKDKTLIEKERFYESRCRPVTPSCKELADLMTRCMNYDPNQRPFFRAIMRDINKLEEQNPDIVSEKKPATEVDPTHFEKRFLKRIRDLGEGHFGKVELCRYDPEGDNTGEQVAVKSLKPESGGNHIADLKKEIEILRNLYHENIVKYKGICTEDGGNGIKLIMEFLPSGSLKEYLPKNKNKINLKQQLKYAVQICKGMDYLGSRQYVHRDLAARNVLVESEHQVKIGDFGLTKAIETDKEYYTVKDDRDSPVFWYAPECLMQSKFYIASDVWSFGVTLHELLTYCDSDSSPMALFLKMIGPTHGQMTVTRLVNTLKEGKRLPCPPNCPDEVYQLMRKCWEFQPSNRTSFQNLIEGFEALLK
T3 sequence (P52333 822-1111 limits assumed): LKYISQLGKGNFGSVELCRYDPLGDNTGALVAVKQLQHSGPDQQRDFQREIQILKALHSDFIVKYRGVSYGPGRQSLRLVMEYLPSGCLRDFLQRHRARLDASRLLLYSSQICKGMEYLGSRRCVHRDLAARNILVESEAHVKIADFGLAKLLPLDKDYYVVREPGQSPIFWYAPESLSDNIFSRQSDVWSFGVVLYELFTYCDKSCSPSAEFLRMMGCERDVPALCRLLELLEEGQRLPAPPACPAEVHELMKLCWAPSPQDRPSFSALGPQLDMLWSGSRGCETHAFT

Structure (SMILES) | IC50 ([1]; JH1 kinase domain, ADP-Glo) [nM] | IC50 [2] [µM] | IC50 ([3]; JH1 kinase domain, ADP-Glo) [nM] | IC50 ([4]; JH1 kinase domain, ADP-Glo) [nM] | IC50 ([5]; JH1 kinase domain, ADP-Glo) [nM] | IC50 [6] [nM] | IC50 [7] [nM] | IC50 ([1]; JAK1 JH1, ADP-Glo) [nM] | IC50 ([3]; TYK2 JH1, ADP-Glo) [nM] | IC50 ([4]; JAK3 JH1, ADP-Glo) [nM] | IC50 ([5]; JAK2 JH1, ADP-Glo) [nM]
C[C@@H]1CN(c2ccnn3cc(-c4cnn(C)c4)cc23)C(=O)[C@]1(C#N)C1CC1 [Example 34, (3R,4S)-3-cyclopropyl-4-methyl-1-(6-(1-methyl-1H-pyrazol-4-yl)pyrrolo[1,2-b]pyridazin-4-yl)-2-oxopyrrolidine-3-carbonitrile] | 100 to 1000 | 5 to 10 | < 5 | 100 to 1000 | 100 to 1000 | 20 to 50 | 1000 to 5000 |  |  |  | 
C[C@@H]1CN(c2c[nH]c3ncc(-c4cnn(C)c4)cc23)C(=O)[C@]1(C#N)C1CC1 [Example 288, (3R,4S)-3-cyclopropyl-4-methyl-1-(5-(1-methyl-1H-pyrazol-4-yl)-1H-pyrrolo[2,3-b]pyridin-3-yl)-2-oxopyrrolidine-3-carbonitrile] |  | 1 to 5 |  |  |  | 50 to 100 | 1000 to 5000 | 100 to 1000 | 5 to 20 | 100 to 1000 | < 100
C[C@@H]1CN(c2nc(-c3cnn(CC#N)c3)cn3ncc(F)c23)C(=O)[C@]1(C#N)C1CC1 [Example 220, (3R,4S)-1-(6-(1-(cyanomethyl)-1H-pyrazol-4-yl)-3-fluoropyrazolo[1,5-a]pyrazin-4-yl)-3-cyclopropyl-4-methyl-2-oxopyrrolidine-3-carbonitrile] |  | 1 to 5 |  |  |  | > 100 | 1000 to 5000 | 100 to 1000 | < 5 | < 100 | 100 to 1000
CC(C)n1cc(-c2cc3nccc(N4C[C@@H](C)[C@@](C#N)(C5CC5)C4=O)c3o2)cn1 [Example 346, (3R,4S)-3-cyclopropyl-1-(2-(1-isopropyl-1H-pyrazol-4-yl)furo[3,2-b]pyridin-7-yl)-4-methyl-2-oxopyrrolidine-3-carbonitrile] |  | 1 to 5 |  |  |  | > 100 | 1000 to 5000 | < 100 | < 5 | < 100 | 100 to 1000
C[C@@H]1CN(c2ccnc3[nH]c(-c4cnn(C)c4)cc23)C(=O)[C@]1(C#N)C1CC1 [Example 1, (3R,4S)-3-cyclopropyl-4-methyl-1-(2-(1-methyl-1H-pyrazol-4-yl)-1H-pyrrolo[2,3-b]pyridin-4-yl)-2-oxopyrrolidine-3-carbonitrile] | < 100 | 0.1 to 1 | < 5 | < 100 | < 100 | 5 to 20 | < 100 |  |  |  | 
COc1ccc(-c2cc3c(N4C[C@@H](C)[C@@](C#N)(C5CC5)C4=O)ccnn3c2)cn1 [Example 48, (3R,4S)-3-cyclopropyl-1-(6-(6-methoxypyridin-3-yl)pyrrolo[1,2-b]pyridazin-4-yl)-4-methyl-2-oxopyrrolidine-3-carbonitrile] | 100 to 1000 | 5 to 10 | 5 to 20 | 100 to 1000 | 100 to 1000 | > 100 | 1000 to 5000 |  |  |  | 
C[C@@H]1CN(c2ccnn3cc(-n4ccnc4)cc23)C(=O)[C@]1(C#N)C1CC1 [Example 336, (3R,4S)-1-(6-(1H-imidazol-1-yl)pyrrolo[1,2-b]pyridazin-4-yl)-3-cyclopropyl-4-methyl-2-oxopyrrolidine-3-carbonitrile] |  | > 10 |  |  |  | > 100 | > 10000 | 100 to 1000 | 20 to 50 | 100 to 1000 | 1000 to 5000
COc1cc(-c2cc3c(N4CC[C@@](C#N)(C5CC5)C4=O)ccnc3[nH]2)ccn1 [Example 3, (S)-3-cyclopropyl-1-(2-(2-methoxypyridin-4-yl)-1H-pyrrolo[2,3-b]pyridin-4-yl)-2-oxopyrrolidine-3-carbonitrile] | < 100 | 1 to 5 | < 5 | < 100 | < 100 | 20 to 50 | 100 to 1000 |  |  |  | 
CC(C)n1cc(-c2cn3ncc(F)c3c(N3C[C@@H](C)[C@@](C#N)(C4CC4)C3=O)n2)cn1 [Example 190, (3R,4S)-3-cyclopropyl-1-(3-fluoro-6-(1-isopropyl-1H-pyrazol-4-yl)pyrazolo[1,5-a]pyrazin-4-yl)-4-methyl-2-oxopyrrolidine-3-carbonitrile] | < 100 | 1 to 5 | < 5 | < 100 | < 100 | 20 to 50 | 100 to 1000 |  |  |  | 
C[C@@H]1CN(c2ccnn3cc(-c4ccc(C#N)nc4)cc23)C(=O)[C@]1(C#N)C1CC1 [Example 86, 5-(4-((3R,4S)-3-cyano-3-cyclopropyl-4-methyl-2-oxopyrrolidin-1-yl)pyrrolo[1,2-b]pyridazin-6-yl)picolinonitrile trifluoroacetate] | 100 to 1000 | > 10 | 5 to 20 | 100 to 1000 | 1000 to 5000 | > 100 | 5000 to 10000 |  |  |  | 
Cc1cnn2cc(-c3cnn(C)c3)nc(N3C[C@@H](C)[C@@](C#N)(C4CC4)C3=O)c12 [Example 186, (3R,4S)-3-cyclopropyl-4-methyl-1-(3-methyl-6-(1-methyl-1H-pyrazol-4-yl)pyrazolo[1,5-a]pyrazin-4-yl)-2-oxopyrrolidine-3-carbonitrile] | 1000 to 5000 | > 10 | 50 to 100 | 100 to 1000 | 1000 to 5000 | > 100 | > 10000 |  |  |  | 
C[C@@H]1CN(c2nc(-c3cnc4[nH]ccc4c3)cn3nccc23)C(=O)[C@]1(C#N)C1CC1 [Example 230, (3R,4S)-1-(6-(1H-pyrrolo[2,3-b]pyridin-5-yl)pyrazolo[1,5-a]pyrazin-4-yl)-3-cyclopropyl-4-methyl-2-oxopyrrolidine-3-carbonitrile] |  | 1 to 5 |  |  |  | 5 to 20 | 100 to 1000 | < 100 | < 5 | < 100 | 100 to 1000
C[C@@H]1CN(c2nc(-c3cnc4c(c3)CCN4)cn3nccc23)C(=O)[C@]1(C#N)C1CC1 [Example 215, (3R,4S)-3-cyclopropyl-1-(6-(2,3-dihydro-1H-pyrrolo[2,3-b]pyridin-5-yl)pyrazolo[1,5-a]pyrazin-4-yl)-4-methyl-2-oxopyrrolidine-3-carbonitrile] | < 100 | 0.1 to 1 | < 5 | < 100 | < 100 | 50 to 100 | 100 to 1000 |  |  |  | 
C[C@@H]1CN(c2ccnn3cc(-c4cnc5[nH]ccc5c4)cc23)C(=O)[C@]1(C#N)C1CC1 [Example 64, (3R,4S)-1-(6-(1H-pyrrolo[2,3-b]pyridin-5-yl)pyrrolo[1,2-b]pyridazin-4-yl)-3-cyclopropyl-4-methyl-2-oxopyrrolidine-3-carbonitrile] | 100 to 1000 | 5 to 10 | 5 to 20 | 100 to 1000 | 100 to 1000 | 50 to 100 | 1000 to 5000 |  |  |  | 
